Measurements reported in PubChem BioAssay (NCI).
“And” between values parts separate entries of the source, which are not always exact repeats. Equal entries are not always repeated.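 Step 1: Grow cells in 96-well plates. Step 2: Expose to compound for 48 hours at 5 concentrations. Step 3: Interpolate endpoints linearly; if unreached, use highest concentration. The concentration for 50% growth inhibition is given as GI50. TGI marks complete inhibition of growth.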

Test system: HOP-18 NSCLC
Assay: NCI tumour cell line growth inhibition, 48 h

`S=C(N/N=C/c1ccco1)NC12CC3CC(CC(C3)C1)C2` and `CS(=O)(=O)N/N=C/CN1C(=O)c2ccccc2C1=O` cannot be ordered by TGI: greater than 100 µM for the first, greater than 100 µM for the second.

First: CC(=O)O.CC(=O)O.CC(=O)O.CC(=O)O.CC(=O)O.CC(=O)O.O.[Ti].[Ti]
Second: COC(=O)C1=C(c2ccc3c(c2)OCO3)O[C@H](c2cc(OC)c(OC)c(OC)c2)[C@H]1COC(C)=O
The TGI of the first is higher: greater than 100 µM for the first, 60.9 µM for the second.

`O=[N+]([O-])c1nccn1CC(O)c1ccc(F)cc1` (stereo not given) and `COc1ccc(NC(=O)CCc2cc(-c3ccc(O)c(OC)c3)nc(NC#N)n2)cc1` cannot be ordered by TGI: greater than 100 µM for the first, greater than 100 µM for the second.

`COC(=O)c1cc2c3ccccc3n(C(C)=O)c2cn1` and `O=C1c2ccccc2C2(Br)C(=O)c3ccccc3C12` (stereo not given) cannot be ordered by TGI: greater than 100 µM for the first, greater than 100 µM for the second.

`O=S(=O)([O-])c1ccc2c(c1)-c1nc-2nc2[n-]c(nc3nc(nc4[n-]c(n1)c1ccc(S(=O)(=O)[O-])cc41)-c1cc(S(=O)(=O)[O-])ccc1-3)c1ccc(S(=O)(=O)[O-])cc21.[Cu+2].[Na+]` and `CCCCOC(=O)C1C(c2ccc(Cl)cc2)NC(c2ccc(Cl)cc2)C(C(=O)OCCCC)S1(=O)=O` (stereo not given) cannot be ordered by TGI: greater than 100 µM for the first, greater than 100 µM for the second.

First: Cc1cc(Br)cc(C)c1NC(=O)C(=O)C(C(=O)c1ccc2ccccc2c1)C1OC(=O)c2ccccc21 (stereo not given)
Second: Cc1ccc(SC(C)/C=C/NNC2=NC(c3ccccc3)C(c3ccccc3)=NN2)cc1 (stereo not given)
The TGI of the first is lower: 41.3 µM for the first, greater than 100 µM for the second.

Compared with `CC(C)(C)[SiH]12(OC(C(F)(F)F)(C(F)(F)F)c3ccccc31)OC(C(F)(F)F)(C(F)(F)F)c1ccccc12`, `O=c1n(CC2CO2)c(=O)n(CC2CO2)c(=O)n1CC1CO1` (stereo not given) is 21-fold higher in TGI: 9.83 µM for the first, 202 µM for the second.

`O=S(O)CCCCSSCC(O)C(O)CSSCCCCS(=O)O` (stereo not given) and `Cc1ccccc1N1C(=O)/C(=C/c2ccc(N(CCC#N)CCC#N)cc2)N=C1c1cc([N+](=O)[O-])ccc1Cl` cannot be ordered by TGI: greater than 100 µM for the first, greater than 100 µM for the second.

`COc1ccc(C2S/C(=C\c3ccccc3O)C(=O)N2NC(=O)Cc2ccccc2)cc1` (stereo not given) and `Cc1ccc(S(=O)(=O)NCC2CCCCC2=O)cc1` (stereo not given) cannot be ordered by TGI: greater than 100 µM for the first, greater than 100 µM for the second.

`CNC(=S)NC1CCCCC1NC(=S)NC` (stereo not given) and `CC1OC(n2cc(F)c(=O)[nH]c2=O)C=CC1O` (stereo not given) cannot be ordered by TGI: greater than 100 µM for the first, greater than 100 µM for the second.

First: C=C(C=O)[C@@H]1C2OC(=O)C(=C)[C@@H]2CC(O)[C@@]1(C)CC (stereo not given in full)
Second: C=C(CCCCC)CN1CCCC1[C@@](C)(O)CC(=O)OCC (stereo not given in full)
The TGI of the first is lower: 41.3 µM for the first, greater than 100 µM for the second.

`O=C1c2ccccc2C(=O)C1(Cl)C1(S(=O)(=O)O)c2ccccc2-c2ccccc21` showed a TGI greater than 100 µM.

`CC(=O)O.CC(=O)O.CC(=O)O.CC(=O)O.CC(=O)O.CC(=O)O.O.[Ti].[Ti]` and `O=S(=O)([O-])c1ccc2c(c1)-c1nc-2nc2[n-]c(nc3nc(nc4[n-]c(n1)c1ccc(S(=O)(=O)[O-])cc41)-c1cc(S(=O)(=O)[O-])ccc1-3)c1ccc(S(=O)(=O)[O-])cc21.[Cu+2].[Na+]` cannot be ordered by GI50: greater than 100 µM for the first, greater than 100 µM for the second.

Test system: P388 leukemia
Assay: NCI tumour cell line growth inhibition, 48 h

For `O=c1n(CC2CO2)c(=O)n(CC2CO2)c(=O)n1CC1CO1` (stereo not given), the TGI was 122 µM.

Test system: DMS 114 small cell lung
Assay: NCI tumour cell line growth inhibition, 48 h

`CNC(=S)N(C)C(=S)Nn1c(=O)c(C)nn(C)c1=S` and `O=C1CCCC/C(=C/c2ccccc2)N1` cannot be ordered by TGI: greater than 100 µM for the first, greater than 100 µM for the second.

`O=C1CN=C(C[N+](=O)[O-])c2ccccc21` and `CCCCN(CCCC)CC(C(=O)Nc1ccc([N+](=O)[O-])cc1[N+](=O)[O-])/C(C)=N\NC(=S)NN` (stereo not given) cannot be ordered by TGI: greater than 100 µM for the first, greater than 100 µM for the second.

`S=C(N/N=C/c1ccco1)NC12CC3CC(CC(C3)C1)C2` and `CS(=O)(=O)N/N=C/CN1C(=O)c2ccccc2C1=O` cannot be ordered by TGI: greater than 100 µM for the first, greater than 100 µM for the second.

Going from `COC(=O)C1=C(c2ccc3c(c2)OCO3)O[C@H](c2cc(OC)c(OC)c(OC)c2)[C@H]1COC(C)=O` to `O=[N+]([O-])c1nccn1CC(O)c1ccc(F)cc1` (stereo not given), the TGI rises from 5.8 µM to greater than 100 µM.

`COc1ccc(NC(=O)CCc2cc(-c3ccc(O)c(OC)c3)nc(NC#N)n2)cc1` and `COC(=O)c1cc2c3ccccc3n(C(C)=O)c2cn1` cannot be ordered by TGI: greater than 100 µM for the first, greater than 100 µM for the second.

`O=C1c2ccccc2C2(Br)C(=O)c3ccccc3C12` (stereo not given) and `O=S(=O)([O-])c1ccc2c(c1)-c1nc-2nc2[n-]c(nc3nc(nc4[n-]c(n1)c1ccc(S(=O)(=O)[O-])cc41)-c1cc(S(=O)(=O)[O-])ccc1-3)c1ccc(S(=O)(=O)[O-])cc21.[Cu+2].[Na+]` cannot be ordered by TGI: greater than 100 µM for the first, greater than 100 µM for the second.

Going from `CCCCOC(=O)C1C(c2ccc(Cl)cc2)NC(c2ccc(Cl)cc2)C(C(=O)OCCCC)S1(=O)=O` (stereo not given) to `Cc1cc(Br)cc(C)c1NC(=O)C(=O)C(C(=O)c1ccc2ccccc2c1)C1OC(=O)c2ccccc21` (stereo not given), the TGI falls from greater than 100 µM to 41.8 µM.

`CC(C)(C)OC(=O)NCC(=O)OCc1ccccc1` and `Cc1ccc(SC(C)/C=C/NNC2=NC(c3ccccc3)C(c3ccccc3)=NN2)cc1` (stereo not given) cannot be ordered by TGI: greater than 100 µM for the first, greater than 100 µM for the second.

Compared with `CC(C)(C)[SiH]12(OC(C(F)(F)F)(C(F)(F)F)c3ccccc31)OC(C(F)(F)F)(C(F)(F)F)c1ccccc12`, `CSc1nc2c(nc(C)c(=O)n2C2OCC(OC(C)=O)C(OC(C)=O)C2OC(C)=O)c(=O)[nH]1` (stereo not given) is higher in TGI: 22.3 µM for the first, greater than 100 µM for the second.

Compared with `O=c1n(CC2CO2)c(=O)n(CC2CO2)c(=O)n1CC1CO1` (stereo not given), `O=C1OC(c2ccccc2)=N/C1=C/C=C/c1ccco1` is higher in TGI: 70.9 µM for the first, greater than 100 µM for the second.

`Cc1ccccc1N1C(=O)/C(=C/c2ccc(N(CCC#N)CCC#N)cc2)N=C1c1cc([N+](=O)[O-])ccc1Cl` and `COc1ccc(C2S/C(=C\c3ccccc3O)C(=O)N2NC(=O)Cc2ccccc2)cc1` (stereo not given) cannot be ordered by TGI: greater than 100 µM for the first, greater than 100 µM for the second.

`Cc1ccc(S(=O)(=O)NCC2CCCCC2=O)cc1` (stereo not given) and `CNC(=S)NC1CCCCC1NC(=S)NC` (stereo not given) cannot be ordered by TGI: greater than 100 µM for the first, greater than 100 µM for the second.

First: CC1OC(n2cc(F)c(=O)[nH]c2=O)C=CC1O (stereo not given)
Second: C=C(C=O)[C@@H]1C2OC(=O)C(=C)[C@@H]2CC(O)[C@@]1(C)CC (stereo not given in full)
The TGI of the first is higher: greater than 100 µM for the first, 36.8 µM for the second.

`C=C(CCCCC)CN1CCCC1[C@@](C)(O)CC(=O)OCC` (stereo not given in full) and `O=C1c2ccccc2C(=O)C1(Cl)C1(S(=O)(=O)O)c2ccccc2-c2ccccc21` cannot be ordered by TGI: greater than 100 µM for the first, greater than 100 µM for the second.

Compared with `O=S(=O)([O-])c1ccc2c(c1)-c1nc-2nc2[n-]c(nc3nc(nc4[n-]c(n1)c1ccc(S(=O)(=O)[O-])cc41)-c1cc(S(=O)(=O)[O-])ccc1-3)c1ccc(S(=O)(=O)[O-])cc21.[Cu+2].[Na+]`, `CCOC(=O)Oc1c(OC)cc(C(=O)NC2CCc3cc(OC)c(OC)c(OC)c3-c3ccc(SC)c(=O)cc32)cc1OC` (stereo not given) is lower in GI50: 31.2 µM for the first, less than 0.007 µM for the second.

`CCOC(=O)Oc1c(OC)cc(C(=O)NC2CCc3cc(OC)c(OC)c(OC)c3-c3ccc(SC)c(=O)cc32)cc1OC` (stereo not given) was tested, and the TGI was 0.0556 µM and < 0.007 µM.
In the case of `O=S(O)CCCCSSCC(O)C(O)CSSCCCCS(=O)O` (stereo not given), the TGI was 34 µM and 56.6 µM.

Test system: XF 498 CNS
Assay: NCI tumour cell line growth inhibition, 48 h

`O=[n+]1c2c(n([O-])c3ccccc31)CCCCCCCCCC2` and `O=C1CCCC/C(=C/c2ccccc2)N1` cannot be ordered by TGI: greater than 100 µM for the first, greater than 100 µM for the second.
